Test results from PMC7796460, “Relation of Metal-Binding Property and Selective Toxicity of 8-Hydroxyquinoline Derived Mannich Bases Targeting Multidrug Resistant Cancer Cells” (Cancers, 2021).
Read-outs that look alike come from different tables or passages of the source.

Assays:
MES-SA/B1 cells [1] = test: TXRF intracellular iron levels, MES-SA/B1; type: cell-based, human; conditions: for Intracellular iron levels: MES-SA/B1, 25 µM holo-transferrin 4 h, then 5 µM ligand 8 h (Figure 4A)
Description: (§1) Cells were seeded to 6-well plates in a density of 1.5 Mio cells/well and allowed to attach overnight. Following a washing step with phosphate buffered saline (PBS), cells were incubated in serum free DMEM. For the iron-level measurements, cells were preloaded with 25 µM holo-transferrin for 4 h and, after a washing step with serum free DMEM, cells were incubated with 5 µM of each ligand for 8 h. For the detection of copper levels, cells were treated with 1 µM of the ligands in the presence of 5 µM CuCl2 for 4 h. Following incubation, cells were harvested upon trypsination, washed twice with PBS, counted and the resulting pellets were digested in 20 μL of 30% H2O2, 80 μL of 65% HNO3. 10 μL of 15 µg/mL Ga(NO3)3 (in nitric acid) was added as an internal standard upon digestion for 24 h at room temperature. From the resulting solutions, 2 μL were pipetted on the quartz reflectors used for total-reflection X-ray fluorescence (TXRF) analysis. For the determination of the intracellular Cu content, the TXRF method was used as previously reported. Briefly, all determinations were performed on an Atomika 8030C TXRF spectrometer (Atomika Instruments GmbH, Oberschleissheim, Germany). The stock solution of 1000 mg/L Ga was purchased from Merck (Darmstadt, Germany). The Kα line used for determination of Fe and Cu were at 6.403 and 8.047 keV. […] Significance was calculated using unpaired t-tests; results are given as *: p ≤ 0.05, **: p ≤ 0.01, ***: p ≤ 0.001, ****: p ≤ 0.0001.
(§2) Figure 4 Effect of the compounds on intracellular metal levels. (A) Iron levels of MES-SA (open columns) and MES-SA/B1 cells in absence (dark red squared columns) and presence of Pgp inhibitor Tariquidar (bright red squared columns). Cells were loaded with 25 µM holo-transferrin (4 h), followed by an incubation (8 h) without (ctr) or with 5 µM of ligands Q-1, Q-2, Q-3, and Q-4. […] (B) Cellular copper levels measured following a 4 h co-administration of compounds Q-1, Q-2, Q-3, and Q-4 (1 µM) and CuCl2 (5 µM) in MES-SA (open columns), MES-SA/Dx5 (filled columns) and MES-SA-B1 (squared columns) cells. Significance is given as *: p ≤ 0.05, **: p ≤ 0.01, ***: p ≤ 0.001.

MDCK cells = test: MTT viability assay, MDCK; type: cell-based, canine; conditions: Canis lupus familiaris, 72 h, MTT 72 h
From the text: (§3) MDCK II canine kidney cells, A431 epidermoid carcinoma cells, the human uterine sarcoma cell lines MES-SA and the doxorubicin selected MES-SA-Dx5 were obtained from ATCC (MDCK II: No. CRL-2936™, A431: No. CRL-1555™, MES-SA: No. CRL-1976™, MES-SA/Dx5: No. CRL-1977™). ABCB1 was expressed in A431 and MES-SA cells using lentiviral transduction. The human cervix carcinoma cell line KB-3-1 and the vinblastine selected KB-v1were kind gifts from Dr. Michael M. Gottesman, National Institutes of Health. The phenotype of the resistant cells was verified using cytotoxicity assays. MDCK-B1 and MDCK-MM were established by the Sleeping Beauty transposon-based gene delivery system. OVCAR-8 and NCI-ADRres cells (obtained from the Division of Cancer Treatment and Diagnosis (DCTD) Tumor Repository (National Cancer Institute, Frederick, MD, USA)) were cultivated in RPMI-1640 (Sigma Aldrich, Budapest, Hungary), and other cell lines were cultivated in Dulbecco’s Modified Eagle Medium (DMEM, Sigma Aldrich, Budapest, Hungary), supplemented with 10% fetal bovine serum, 5 mM glutamine, and 50 unit/mL penicillin and streptomycin (Life Technologies, Carlsbad, CA, USA). All cell lines were cultivated at 37 °C, 5% CO2.
(§4) MTT viability assays were performed as described earlier with minor modifications. Briefly, cells were seeded into 96-well tissue culture plates (Sarstedt, Newton, NC, USA/Orange, Braine-l’Alleud, Belgium) at a density of 5000 cells/well and allowed to attach overnight. Test compounds were added to achieve the required final concentration in a final volume of 100 µL per well. After an incubation period of 72 h, the supernatant was removed and fresh medium containing the MTT reagent (0.083 mg/mL) was added. Incubation with MTT at 37 °C was terminated after 1 h by removing the supernatant and lysing the cells with 100 µL DMSO per well. Viability of the cells was measured spectrophotometrically based on the absorbance values at 540 nm using either a Perkin Elmer Victor X3 or an EnSpire microplate reader. Data were background corrected by subtraction of the signal obtained from unstained cell lysates and normalized to untreated cells. Curves were fitted by Prism software (GraphPad Software Inc., San Diego, CA, USA) using the sigmoidal dose-response model (comparing variable and fixed slopes). […] Significance was calculated using unpaired t-tests; results are given as *: p ≤ 0.05, **: p ≤ 0.01, ***: p ≤ 0.001, ****: p ≤ 0.0001.

[2] = test system: MES-SA, MES-SA/Dx5 and MES-SA/B1 cells; test: TXRF intracellular copper levels; type: cell-based, human; conditions: for Intracellular copper levels: 1 µM ligand with 5 µM CuCl2, 4 h (Figure 4B)
Description: as §1, §2

MES-SA cells = test: MTT viability assay, MES-SA; type: cell-based, human; conditions: for IC50: Homo sapiens, MES-SA; for Effect of co-administration of CuCl2 on toxicity: parental MES-SA, increasing concentrations of CuCl2, MTT 72 h (Figure 2I-L)
From the text: as §3, §4

MES-SA/B1 cells [3] = test: MTT viability assay, MES-SA/B1; type: cell-based, human; conditions: for IC50: Homo sapiens, MES-SA, 72 h, MTT 72 h
From the text: as §3, §4

[4] = presence of 1 µM Tariquidar (values in brackets)
[5] = MTT 72 h, absence of Tariquidar, read-out: IC50 MES-SA
[6] = Table 2, value outside brackets, read-out: MES-SA (toxicity, Table 2)
[7] = IC50 MES-SA vs. MES-SA/B1, absence of Tariquidar
[8] = IC50 MES-SA vs. MES-SA/B1, presence of 1 µM Tariquidar (brackets)

SMILES	Intracellular iron levels (MES-SA/B1 cells [1])	IC50 (MDCK cells; absence of Tariquidar) [µM]	IC50 (MDCK cells; [4]) [µM]	Intracellular copper levels [2]	IC50 (MES-SA cells; [5]) [µM]	IC50 (MES-SA cells; [6]) [µM]	Effect of co-administration of CuCl2 on toxicity (MES-SA cells)	IC50 (MES-SA/B1 cells [3]; absence of Tariquidar) [µM]	IC50 (MES-SA/B1 cells [3]; [4]) [µM]	SR MES-SA/B1 (MES-SA/B1 cells [3]; [7])	SR MES-SA/B1 (MES-SA/B1 cells [3]; [8])	Increase in copper uptake ([2]; 1 µM ligand with 5 µM CuCl2, 4 h) [fold]	Intracellular iron depletion in the presence of the Pgp inhibitor TQ (MES-SA/B1 cells [1]; MES-SA/B1, 5 µM ligand 8 h, with Tariquidar)
Oc1cccc2cccnc12 [Compound Q-1, 8-Hydroxyquinoline]	negligible	3.27 ± 1.24	3.08	significantly increased copper levels	4.19 ± 0.74	4.19 ± 0.74	increased the toxicity	3.68 ± 0.95	4.92	1.14	1.03	–	–
Oc1c(CN2CCOCC2)ccc2cccnc12 [Compound Q-2, 7-(morpho-lino-methyl)quinolin-8-ol]	–	9.15 ± 3.51	11.1	significantly increased copper levels	6.97 ± 1.75	6.97 ± 1.75	increased the toxicity	3.12 ± 0.28	3.6	2.23	1.29	–	–
Oc1c(CN2CCCCC2)ccc2cccnc12 [Compound Q-3, 7-(piperidin-1-ylmethyl)quinolin-8-ol]	drop of intracellular iron levels below baseline levels	7.61 ± 3.06	10.2	–	4.11 ± 1.2	4.11 ± 1.2	selective increase in sensitivity	0.83 ± 0.02	1.5	4.95	1.99	10	–
Oc1c(CNCc2ccccc2F)cc(Cl)c2cccnc12 [Compound Q-4, 5-chloro-7-((2-fluorobenzylamino)methyl)quinolin-8-ol]	marked, selective iron depletion	4.55 ± 1.53	5.92	significantly increased copper levels	2.75 ± 0.46	2.75 ± 0.46	selective increase in sensitivity	0.3 ± 0.06	1.03	9.24	2.16	–	abrogated
